Test results from US20120258980A1, “Antibacterial Agent for Drug-Resistant Bacteria, Method for Screening for Same, and Use of Same” (priority 2009, published 2012).
≈ marks a conversion by molar mass, not a printed value.

Assays:
[1] = test system: methicillin-susceptible S. aureus (MSSA), MRSA and mutants thereof; test: MIC measurement, Test Example 3 (MSSA, MRSA and sequential gyrA/grlA quinolone-resistant mutants); format: cell-based, Staphylococcus aureus
From the text: That is, the first-step quinolone-resistant mutants are bacterial strains which are the same as their parent strains (clinical isolates) except that the genes shown in the corresponding parts of Table 1-1 are mutated. The second-step quinolone-resistant mutants are bacterial strains which are the same as the first-step quinolone-resistant mutants except that the genes shown in the corresponding parts of Table 1-1 are further mutated. The third-step quinolone-resistant mutants are bacterial strains which are the same as the second-step quinolone-resistant mutants except that the genes shown in the corresponding parts of Table 1-1 are further mutated. The fourth-step quinolone-resistant strain is a bacterial strain which is the same as the third-step quinolone-resistant mutant bacteria except that the gene shown in the corresponding part of Table 1-1 is further mutated.
(§1) Each of the bacterial strains listed in Table 1-1 was shake-cultured at 37° C. overnight in 4 mL of a medium (Tryptical Soy Broth: TSB, product of Becton Dickinson and Company). FDA209P was used as a control.
(§2) After completion of culturing, the resultant culture was suspended in a cation-adjusted Mueller Hinton Broth (CAMHB, product of Becton Dickinson and Company). Then, the obtained bacterial culture was adjusted in absorbance with the CAMHB so that the absorbance at 578 nm of the bacterial culture was adjusted to 0.3 measured by an absorption spectrometer. In addition, the resultant bacterial culture was 500-fold diluted with the CAMHB.
(§3) Each of the 500-fold diluted, pre-cultured bacterial cultures was added at 50 μL/well to the CAMHB containing the quinolones and the nybomycins at various concentrations (50 μL/well), followed by statically culturing at 37° C. overnight.
(§4) After completion of culturing, the growth of the bacteria was visually determined based on turbidity to measure MIC in each bacterial strain.

[2] = test system: MRSA, CA-MRSA and MSSA of Staphylococcus aureus; test: MIC measurement, Test Example 4 (MRSA, CA-MRSA and MSSA strains); format: cell-based
Protocol: as §1, §2, §3, §4
Glycopeptides, imipenem, quinolones and nybomycins were studied for antibacterial activity against the bacterial strains listed in Table 2-1; i.e., MRSA, CA-MRSA and MSSA of Staphylococcus aureus.

Enterococcus faecalis = test: MIC measurement, Test Example 6 (enterococcus); format: cell-based
Protocol: as §1, §2, §3, §4
Quinolones and nybomycins were evaluated for antibacterial activity against Enterococcus faecalis shown in Table 6, wherein the other strains than NCTC12201 and NCTC12203 were subdivided from Shionogi & Co., Ltd (note that these strains are available also from the Department of Bacteriology, Juntendo University). The NCTC strains are both vancomycin-resistant E. faecalis and available from the National Collection of Type Cultures (NCTC).

SMILES: Cl.O=C(O)c1cn(C2CC2)c2cc(N3CCNCC3)c(F)cc2c1=O [CPFX, ciprofloxacin chloride]
- MIC ([1]; MR5867-1, first-step quinolone-resistant mutant, grlA E84K): 2 µg/mL
- MIC ([1]; MR5867-2, second-step mutant, further gyrA S84L): 32 µg/mL
- MIC ([1]; MS5935-1, first-step quinolone-resistant mutant, grlA S80F): 2 µg/mL
- MIC ([1]; MS5935-2, second-step mutant, further gyrA S84L): 32 µg/mL
- MIC ([1]; MS5952-1, first-step quinolone-resistant mutant, grlA S80Y): 2 µg/mL
- MIC ([1]; MS5952-2, second-step mutant, further gyrA S84L): 8 µg/mL
- MIC ([1]; MS5952-3, third-step mutant, further grlA A116V): 64 µg/mL
- MIC ([2]; ISA12-1, MRSA): 0.5 µg/mL
- MIC ([2]; ISA35-1, MRSA): 4 µg/mL
- MIC ([2]; ISA51-1, MSSA): 0.5 µg/mL
- MIC ([2]; ISA58-1, MRSA): 0.5 µg/mL
- MIC ([2]; ISA73-1, MSSA): 0.5 µg/mL
- MIC ([2]; KBSA34, MRSA): 0.5 µg/mL
- MIC ([2]; KBSA72, MRSA): 128 µg/mL
- MIC ([2]; KBSA96, MRSA): 32 µg/mL
- MIC ([2]; KBSA171, MRSA): 64 µg/mL
- MIC ([2]; KSA24, MRSA): 32 µg/mL
- MIC ([2]; KSA31, MRSA): 8 µg/mL
- MIC ([2]; KSA36, MRSA): 128 µg/mL
- MIC ([2]; USA300 FPR3757, CA-MRSA): 16 µg/mL
- MIC (Enterococcus faecalis; E. faecalis 36-15672, quinolone-susceptible enterococci): 1 µg/mL
- MIC (Enterococcus faecalis; E. faecalis 36-15673, quinolone-susceptible enterococci): 1 µg/mL
- MIC (Enterococcus faecalis; E. faecalis 36-15678, quinolone-susceptible enterococci): 1 µg/mL
- MIC (Enterococcus faecalis; E. faecalis 36-15686, quinolone-resistant enterococci): 128 µg/mL
- MIC (Enterococcus faecalis; E. faecalis 36-15688, quinolone-susceptible enterococci): 1 µg/mL
- MIC (Enterococcus faecalis; E. faecalis 36-15694, quinolone-resistant enterococci): 32 µg/mL
- MIC (Enterococcus faecalis; E. faecalis 36-15696, quinolone-susceptible enterococci): 1 µg/mL
- MIC (Enterococcus faecalis; E. faecalis 36-15703, quinolone-resistant enterococci): 32 µg/mL
- MIC (Enterococcus faecalis; E. faecalis 36-15716, quinolone-resistant enterococci): 128 µg/mL
- MIC (Enterococcus faecalis; E. faecalis 36-15718, quinolone-susceptible enterococci): 1 µg/mL
- MIC (Enterococcus faecalis; E. faecalis 36-15720, quinolone-susceptible enterococci): 2 µg/mL
- MIC (Enterococcus faecalis; E. faecalis 36-15722, quinolone-resistant enterococci): 64 µg/mL
- MIC (Enterococcus faecalis; E. faecalis 36-15726, quinolone-resistant enterococci): 64 µg/mL
- MIC (Enterococcus faecalis; E. faecalis 36-15730, quinolone-susceptible enterococci): 2 µg/mL
- MIC (Enterococcus faecalis; E. faecalis 36-15736, quinolone-susceptible enterococci): 1 µg/mL
- MIC (Enterococcus faecalis; E. faecalis 36-15741, quinolone-susceptible enterococci): 2 µg/mL
- MIC (Enterococcus faecalis; E. faecalis NCTC12201, vancomycin-resistant (VRE), quinolone-susceptible enterococci): 1 µg/mL
- MIC (Enterococcus faecalis; E. faecalis NCTC12203, vancomycin-resistant (VRE), quinolone-susceptible enterococci): 1 µg/mL

SMILES: C[C@@H](O)[C@H]1C(=O)N2C(C(=O)O)=C(SCCN=CN)C[C@H]12 [IPM, imipenem]
- MIC ([2]; Staphylococcus aureus, ATCC 29213 / MRSA / MSSA, ATCC 29213, MSSA): < 0.03 µg/mL
- MIC ([2]; Staphylococcus aureus, COL, MRSA): 64 µg/mL (≈ 214 µM)
- MIC ([2]; Staphylococcus aureus, FDA209P / MRSA / MSSA, FDA209P, MSSA): < 0.03 µg/mL
- MIC ([2]; Staphylococcus aureus, ISA12-1, MRSA): 16 µg/mL (≈ 53.4 µM)
- MIC ([2]; Staphylococcus aureus, ISA12-2, MRSA): 16 µg/mL (≈ 53.4 µM)
- MIC ([2]; Staphylococcus aureus, ISA35-1, MRSA): 1 µg/mL (≈ 3.34 µM)
- MIC ([2]; Staphylococcus aureus, ISA37-1, MSSA): 0.125 µg/mL (≈ 0.418 µM)
- MIC ([2]; Staphylococcus aureus, ISA49-1, MSSA): 0.25 µg/mL (≈ 0.835 µM)
- MIC ([2]; Staphylococcus aureus, ISA51-1, MSSA): 0.25 µg/mL (≈ 0.835 µM)
- MIC ([2]; Staphylococcus aureus, ISA56-3, MRSA): 16 µg/mL (≈ 53.4 µM)
- MIC ([2]; Staphylococcus aureus, ISA58-1, MRSA): 0.125 µg/mL (≈ 0.418 µM)
- MIC ([2]; Staphylococcus aureus, ISA62-1, MRSA): 2 µg/mL (≈ 6.68 µM)
- MIC ([2]; Staphylococcus aureus, ISA73-1, MSSA): 0.25 µg/mL (≈ 0.835 µM)
- MIC ([2]; Staphylococcus aureus, KBSA32, MRSA): 0.25 µg/mL (≈ 0.835 µM)
- MIC ([2]; Staphylococcus aureus, KBSA34, MRSA): 0.25 µg/mL (≈ 0.835 µM)
- MIC ([2]; Staphylococcus aureus, KBSA72, MRSA): 0.125 µg/mL (≈ 0.418 µM)
- MIC ([2]; Staphylococcus aureus, KBSA96, MRSA): 0.25 µg/mL (≈ 0.835 µM)
- MIC ([2]; Staphylococcus aureus, KBSA171, MRSA): 0.25 µg/mL (≈ 0.835 µM)
- MIC ([2]; Staphylococcus aureus, KSA24, MRSA): 0.5 µg/mL (≈ 1.67 µM)
- MIC ([2]; Staphylococcus aureus, KSA31, MRSA): 0.125 µg/mL (≈ 0.418 µM)
- MIC ([2]; Staphylococcus aureus, KSA36, MRSA): 0.5 µg/mL (≈ 1.67 µM)
- MIC ([2]; Staphylococcus aureus, MRSA / MSSA / NCTC 8325, NCTC 8325, MSSA): ≤ 0.063 µg/mL
- MIC ([2]; Staphylococcus aureus, MRSA / MSSA / USA300, USA300 FPR3757, CA-MRSA): 2 µg/mL (≈ 6.68 µM)
- MIC ([2]; Staphylococcus aureus, MW2, CA-MRSA): 2 µg/mL (≈ 6.68 µM)
- MIC ([2]; Staphylococcus aureus, N315, MRSA): 8 µg/mL (≈ 26.7 µM)
